# Values of other authors, collected in patent US20190015503A1, “METHODS FOR THE PROGNOSIS AND TREATMENT OF ENDOMETRIAL CARCINOMA” (INSERM (INSTITUT NATIONAL DE LA SANTÉ DE LA RECHERCHE …, priority 2015, published 2019).
# Tested on: prostate cancer cells
# Conditions: dose- and time-dependent
structure (smiles),measurement,value
COc1cccc(OC)c1-c1cc(C(=O)NC2(C(=O)O)C3CC4CC(C3)CC2C4)nn1-c1ccnc2cc(Cl)ccc12 (stereo not shown) [SR48692],radio-sensitization (increasing apoptotic cell death and decreasing clonogenic survival),radio-sensitized prostate cancer cells in a dose- and time-dependent manner
